Data: patent US20040171566A1, “Antisense modulation of p38 mitogen activated protein kinase expression” (priority 1999, published 2004)
In the oligonucleotide strings, read from the 5' end, every base follows the letter of its sugar. An asterisk marks phosphorothioate; unmarked linkages are phosphodiester. Other units and linkages are bracketed, terminal groups are in braces. A string of capitals states the bases alone. e = 2'-O-(2-methoxyethyl) (MOE); [5mC] = 5-methylcytosine; d = 2'-deoxy (DNA)

What was measured:
human p38β mRNA = experiment: Human p38β mRNA expression in T-24 cells; conditions: for % P38β mRNA EXPRESSION: initial screen of human p38α oligonucleotides
human p38α mRNA [1] = experiment: Human p38α mRNA expression in T-24 cells; conditions: for % P38α mRNA EXPRESSION: initial screen of human p38α oligonucleotides
human p38α mRNA [2] = experiment: Inhibition of human p38α mRNA expression in Jurkat cells, Northern blot; type: cell-based; conditions: Jurkat cells electroporated with 10 μM oligonucleotide; Northern blot
Protocol: The human Jurkat T-cell line (American Type Culture Collection, Manassas, Va.) was maintained in RPMI 1640 growth media supplemented with 10% fetal bovine serum (FBS; Hyclone, Logan, Utah). HUVEC cells (Clonetics, San Diego, Calif.) were cultivated in endothelial basal media supplemented with 10% FBS (Hyclone, Logan, Utah).
Jurkat cells were grown to approximately 75% confluency and resuspended in culture media at a density of 1×10^7 cells/ml. A total of 3.6×10^6 cells were employed for each treatment by combining 360 μl of cell suspension with oligonucleotide at the indicated concentrations to reach a final volume of 400 μl. Cells were then transferred to an electroporation cuvette and electroporated using an Electrocell Manipulator 600 instrument (Biotechnologies and Experimental Research, Inc.) employing 150 V, 1000 μF, at 13 Ω. Electroporated cells were then transferred to conical tubes containing 5 ml of culture media, mixed by inversion, and plated onto 10 cm culture dishes.
Total mRNA was isolated using the RNEASY7 Mini Kit (Qiagen, Valencia, Calif.; similar kits from other manufacturers may also be used), separated on a 1% agarose gel, transferred to HYBOND™-N+ membrane (Amersham Pharmacia Biotech, Piscataway, N.J.), a positively charged nylon membrane, and probed. p38 MAPK probes were made using the Prime-A-Gene7 kit (Promega Corporation, Madison, Wis.), a random primer labeling kit, using mouse p38α or p38β cDNA as a template. A glyceraldehyde 3-phosphate dehydrogenase (G3PDH) probe was purchased from Clontech (Palo Alto, Calif.), Catalog Number 9805-1. The fragments were purified from low-melting temperature agarose, as described in Maniatis, T., et al., Molecular Cloning: A Laboratory Manual, 1989. The G3PDH probe was labeled with REDIVUE™ ^32P-dCTP (Amersham Pharmacia Biotech, Piscataway, N.J.) and Strip-EZ labelling kit (Ambion, Austin, Tex.). mRNA was quantitated by a PhosphoImager (Molecular Dynamics, Sunnyvale, Calif.).
Jurkat cells were grown and treated as described above except the concentration of oligonucleotide was varied as indicated in Table 3. […] Maximum inhibition was approximately 70% with 16500 (SEQ ID NO 17).

[3] = initial screen of human p38β oligonucleotides
[4] = dose 50 nM, relative to control oligonucleotide = 100%
[5] = dose 100 nM, relative to control oligonucleotide = 100%
[6] = dose 200 nM, relative to control oligonucleotide = 100%

| Sequence | % P38β mRNA EXPRESSION (human p38β mRNA) [%] | % P38α mRNA EXPRESSION (human p38α mRNA [1]) [%] | % p38β mRNA Expression (human p38β mRNA; [3]) [%] | % p38α mRNA EXPRESSION (human p38α mRNA [1]; [3]) [%] | also measured |
| --- | --- | --- | --- | --- | --- |
| AATGATGGACTGAAATGGTC (eA*eA*eT*eG*eA*dT*dG*dG*dA*d[5mC]*dT*dG*dA*dA*dA*eT*eG*eG*eT*e[5mC]; antisense) [ISIS 100863] | 67 | 49 | – | – | – |
| ACAGACGGAGCCGTAGGCGC (antisense eAe[5mC]eAeGeA*d[5mC]*dG*dG*dA*dG*d[5mC]*d[5mC]*dG*dT*dA*eGeGe[5mC]eGe[5mC]) [ISIS 107869] | – | – | 60 | 93 | – |
| ACGCTCGGGCACCTCCCAGA (phosphorothioate gapmer, further chemistry not given here) [ISIS 100861] | 47 | 60 | – | – | – |
| ACGTTGCTGGGCTTCAGGTC (antisense eAe[5mC]eGeTeT*dG*d[5mC]*dT*dG*dG*dG*d[5mC]*dT*dT*d[5mC]*eAeGeGeTe[5mC]) [ISIS 107874] | – | – | 61 | 100 | % p38β mRNA Expression (human p38β mRNA; [4]): 75%; % p38β mRNA Expression (human p38β mRNA; [5]): 34%; % p38β mRNA Expression (human p38β mRNA; [6]): 23% |
| AGCTTCTTCACTGCCACACG (phosphorothioate gapmer, further chemistry not given here) [ISIS 100862] | 45 | 56 | – | – | – |
| AGGTGCTCAGGACTCCATCT (chimeric deoxy gapped, phosphorothioate, further chemistry not given here) [ISIS 100876] | 93 | 77 | – | – | – |
| AGTCAAAGACTGAATATAGT (eA*eG*eT*e[5mC]*eA*dA*dA*dG*dA*d[5mC]*dT*dG*dA*dA*dT*eA*eT*eA*eG*eT; antisense) [ISIS 100871] | 96 | 57 | – | – | – |
| ATGGACGTGGCCGGCGTGAA (antisense eAeTeGeGeA*d[5mC]*dG*dT*dG*dG*d[5mC]*d[5mC]*dG*dG*d[5mC]*eGeTeGeAeA) [ISIS 107872] | – | – | 57 | 123 | % p38β mRNA Expression (human p38β mRNA; [4]): 71%; % p38β mRNA Expression (human p38β mRNA; [5]): 13%; % p38β mRNA Expression (human p38β mRNA; [6]): 22% |
| CACCGCCACCTTCTGGCGCA (antisense e[5mC]eAe[5mC]e[5mC]eG*d[5mC]*d[5mC]*dA*d[5mC]*d[5mC]*dT*dT*d[5mC]*dT*dG*eGe[5mC]eGe[5mC]eA) [ISIS 107870] | – | – | 74 | 97 | – |
| CACGTAGCCTGTCATTTCAT (chimeric deoxy gapped, phosphorothioate, further chemistry not given here) [ISIS 100868] | 60 | 47 | – | – | – |
| CAGGAATTGAACGTGCTCGT (antisense e[5mC]eAeGeGeA*dA*dT*dT*dG*dA*dA*d[5mC]*dG*dT*dG*e[5mC]eTe[5mC]eGeT) [ISIS 107873] | – | – | 58 | 120 | % p38β mRNA Expression (human p38β mRNA; [4]): 69%; % p38β mRNA Expression (human p38β mRNA; [5]): 41%; % p38β mRNA Expression (human p38β mRNA; [6]): 23% |
| CAGTTGAGCATGATCTCAGG (antisense e[5mC]eAeGeTeT*dG*dA*dG*d[5mC]*dA*dT*dG*dA*dT*d[5mC]*eTe[5mC]eAeGeG) [ISIS 107876] | – | – | 127 | 137 | – |
| CATCATCAGGATCGTGGTAC (chimeric deoxy gapped, phosphorothioate, further chemistry not given here) [ISIS 100873] | 70 | 34 | – | – | % p38α mRNA EXPRESSION (human p38α mRNA [1]; dose 50 nM): 19%; % p38α mRNA EXPRESSION (human p38α mRNA [1]; dose 100 nM): 12%; % p38α mRNA EXPRESSION (human p38α mRNA [1]; dose 200 nM): 8% |
| CATCCCACTGACCAAATATC (chimeric deoxy gapped, phosphorothioate, further chemistry not given here) [ISIS 100869] | 100 | 61 | – | – | – |
| CATTTTCCAGCGGCAGCCGC (antisense e[5mC]*eA*eT*eT*eT*eT*dC*dC*dA*dG*dC*dG*dG*dC*eA*eG*e[5mC]*e[5mC]*eG*e[5mC]) [ISIS 16493] | – | – | – | – | % mRNA EXPRESSION (human p38α mRNA [2]): 101% |
| CGGACCAGATATCCACTGTT (antisense e[5mC]eGeGeAe[5mC]*d[5mC]*dA*dG*dA*dT*dA*dT*d[5mC]*d[5mC]*dA*e[5mC]eTeGeTeT) [ISIS 107877] | – | – | – | – | % p38β mRNA Expression (human p38β mRNA; [4]): 50%; % p38β mRNA Expression (human p38β mRNA; [5]): 34%; % p38β mRNA Expression (human p38β mRNA; [6]): 22% |
